Source: a melting point compilation (Tetko et al.)

**Q.** With `CCCCC(NC(=O)NCC)C(=O)O` (stereo unspecified) as the compound, how does the melting point read?
**A.** 96 to 98 °C

**Q.** Which melting point does the source give for `O=C(Nc1ccc(O)cc1)C1CC1` here?
**A.** 212 to 214 °C

**Q.** With `FC(F)(F)Cn1cnnc1S` as the compound, how does the melting point read?
**A.** 93 to 95 °C

**Q.** With `O=C(O)c1csc(COc2ccc(Cl)cc2)n1` as the compound, how does the melting point read?
**A.** 217 to 219 °C

**Q.** With `O=C(O)c1ccc(S(=O)(=O)NCc2ccco2)cc1` as the compound, how does the melting point read?
**A.** 229 to 231 °C

**Q.** For `COc1ccc(Oc2ccc(C=O)cc2)cc1`, which melting point is on record?
**A.** 65 to 67 °C

**Q.** With `NCc1nc(-c2ccc(Cl)cc2)cs1` as the compound, how does the melting point read?
**A.** 105 to 107 °C

**Q.** For `O=C(O)C1CSC(c2ccsc2)N1` (stereo unspecified), which melting point is on record?
**A.** 144 to 146 °C

**Q.** Which melting point does the source give for `Cn1ccnc1C(=O)c1ccncc1` here?
**A.** 138 to 140 °C

**Q.** Which melting point does the source give for `Cn1nnc2ccc(C(=O)O)cc21` here?
**A.** 271 to 273 °C

**Q.** With `COCCn1c(C(=O)O)cc2ccccc21` as the compound, how does the melting point read?
**A.** 139 to 141 °C

**Q.** With `CCCCc1nnc(N)o1` as the compound, how does the melting point read?
**A.** 139 to 141 °C

**Q.** With `Nc1ccccc1C(=O)NCc1ccco1` as the compound, how does the melting point read?
**A.** 76 to 78 °C

**Q.** For `Cc1cccc(OC(C)C(=O)NN)c1C` (stereo unspecified), which melting point is on record?
**A.** 140 to 144 °C

**Q.** With `CSCCC(C(=O)O)N1C(=O)C2CCCCC2C1=O` (stereo unspecified) as the compound, how does the melting point read?
**A.** 268 to 270 °C

**Q.** Which melting point does the source give for `Cn1c(Cl)nc2ccccc21` here?
**A.** 111 to 113 °C

**Q.** Which melting point does the source give for `O=[N+]([O-])c1ccc(Br)c(S(=O)(=O)Cl)c1` here?
**A.** 86 to 88 °C

**Q.** For `Nc1nc2cc3c(cc2s1)OC(F)(F)O3`, which melting point is on record?
**A.** 191 to 193 °C

**Q.** Which melting point does the source give for `NC(=S)CF` here?
**A.** 53 to 55 °C

**Q.** Which melting point does the source give for `CC(=O)c1ccc(C(=O)O)c(F)c1` here?
**A.** 159 to 161 °C

**Q.** For `O=S(=O)(Cl)c1ccc(OCC2CCCCC2)cc1`, which melting point is on record?
**A.** 82 to 84 °C

**Q.** With `CC(=O)Nc1ccc(N)nc1` as the compound, how does the melting point read?
**A.** 166 to 168 °C

**Q.** With `Cc1nnc(S)n1CC(N)=O` as the compound, how does the melting point read?
**A.** 232 to 234 °C

**Q.** With `O=C(O)CCc1nnc(-c2ccccn2)o1` as the compound, how does the melting point read?
**A.** 191 to 193 °C

**Q.** Which melting point does the source give for `O=C(O)CNC(=O)Cn1cncn1` here?
**A.** 206 to 208 °C

**Q.** Which melting point does the source give for `NC(=O)c1cc(N)c(F)cc1F` here?
**A.** 169 to 171 °C

**Q.** For `O=C(O)Cc1ccc(S(=O)(=O)CC(F)F)cc1`, which melting point is on record?
**A.** 135 to 137 °C

**Q.** With `COC(=O)CCNc1ncccc1[N+](=O)[O-]` as the compound, how does the melting point read?
**A.** 65 to 67 °C

**Q.** With `CS(=O)(=O)Nc1ccc(C(=O)CBr)cc1` as the compound, how does the melting point read?
**A.** 178 to 180 °C

**Q.** For `COC(=O)c1cc(S(=O)(=O)Cl)ccc1C`, which melting point is on record?
**A.** 44 to 46 °C

**Q.** With `NC(=NOC(=O)CCCCl)c1cccs1` as the compound, how does the melting point read?
**A.** 144 to 146 °C

**Q.** Which melting point does the source give for `Cc1ccc(-c2nnc(C(C)Cl)o2)cc1C` (stereo unspecified) here?
**A.** 86 to 88 °C

**Q.** Which melting point does the source give for `Cc1ccc(N2CCC(N)C2=O)cc1` (stereo unspecified) here?
**A.** 97 to 99 °C

**Q.** Which melting point does the source give for `CNC(=O)COc1ccc(C=O)cc1OC` here?
**A.** 105 to 107 °C

**Q.** With `N#Cc1ccccc1S(=O)(=O)N1CCN(C(=O)CCl)CC1` as the compound, how does the melting point read?
**A.** 206 to 208 °C

**Q.** For `Cc1cc(N)nc(C(C)C)n1`, which melting point is on record?
**A.** 196 to 198 °C

**Q.** For `O=S(=O)(c1ccc(N=C=S)cc1)N1CCOCC1`, which melting point is on record?
**A.** 99 to 101 °C

**Q.** With `O=C(O)/C=C/c1cc2ccccc2o1` as the compound, how does the melting point read?
**A.** 213 to 215 °C

**Q.** With `COc1ccc(CC(O)C(=O)O)cc1` (stereo unspecified) as the compound, how does the melting point read?
**A.** 84 to 86 °C

**Q.** Which melting point does the source give for `O=C(O)C1=COCCO1` here?
**A.** 164 to 166 °C

**Q.** Which melting point does the source give for `O=C(O)c1c[nH]c2cccc(F)c12` here?
**A.** 209 to 211 °C

**Q.** For `COC(=O)c1cc2c(F)cc(Br)cc2[nH]1`, which melting point is on record?
**A.** 190 to 192 °C

**Q.** With `Nc1noc(-c2ccoc2)n1` as the compound, how does the melting point read?
**A.** 179 to 181 °C

**Q.** For `Cc1cc(Nc2nc3ccccc3nc2Cl)n(-c2ccccc2)n1`, which melting point is on record?
**A.** 178 to 180 °C

**Q.** Which melting point does the source give for `CCOC(=O)c1cc2c(nc1N)CCN(C)C2` here?
**A.** 146 to 148 °C

**Q.** Which melting point does the source give for `CC(C)(C)OC(=O)NCc1nnc(-c2cccnc2)[nH]1` here?
**A.** 196 to 198 °C

**Q.** For `CCN(CC)S(=O)(=O)c1ccc(N)cc1`, which melting point is on record?
**A.** 99 to 101 °C

**Q.** With `O=[N+]([O-])c1n[nH]cc1S(=O)(=O)Cl` as the compound, how does the melting point read?
**A.** 154 to 156 °C

**Q.** For `COc1cc(C(=O)O)c(F)cc1N`, which melting point is on record?
**A.** 189 to 191 °C

**Q.** Which melting point does the source give for `Nc1cccc2c1CN(c1nccs1)C2` here?
**A.** 119 to 121 °C

**Q.** For `O=C(O)c1c[nH]nc1-c1ccccc1`, which melting point is on record?
**A.** 286 to 288 °C

**Q.** Which melting point does the source give for `C#CCn1nc(C)c(C)c1C` here?
**A.** 74 to 76 °C

**Q.** Which melting point does the source give for `Nc1ccc(NC(=O)C2CCCO2)cc1C(F)(F)F` (stereo unspecified) here?
**A.** 64 to 66 °C

**Q.** Which melting point does the source give for `O=c1oc2ccccc2c(Cl)c1[N+](=O)[O-]` here?
**A.** 160 to 162 °C

**Q.** With `Nc1ccc(-c2nnc3n2CCC3)cc1` as the compound, how does the melting point read?
**A.** 311 to 313 °C

**Q.** Which melting point does the source give for `O=Cc1cnn(Cc2ccccc2)c1` here?
**A.** 43 to 45 °C

**Q.** With `O=C1CCOc2c(Cl)cccc21` as the compound, how does the melting point read?
**A.** 62 to 64 °C

**Q.** With `O=S(=O)(Cl)c1ccc2c(c1)S(=O)(=O)NC=N2` as the compound, how does the melting point read?
**A.** 247 to 249 °C

**Q.** For `Nc1cc(C(=O)N2CCCCC2)ccc1Cl`, which melting point is on record?
**A.** 135 to 137 °C

**Q.** For `O=c1[nH]c(CCl)nc2sccc12`, which melting point is on record?
**A.** 209 to 211 °C

**Q.** With `Cc1ccc(C(=O)O)cc1NCc1ccc(Br)o1` as the compound, how does the melting point read?
**A.** 125 to 127 °C

**Q.** For `Nc1cc(F)c(-n2cccn2)cc1N`, which melting point is on record?
**A.** 101 to 103 °C

**Q.** Which melting point does the source give for `Cc1ccc(S(=O)(=O)Cl)cc1S(=O)(=O)N1CCCCC1` here?
**A.** 111 to 113 °C

**Q.** For `CCOC(=O)C(=O)CC(=O)c1ccc(Cl)cc1Cl`, which melting point is on record?
**A.** 68 to 70 °C

**Q.** Which melting point does the source give for `NC(=S)Nc1cccc2c1CCCC2` here?
**A.** 165 to 167 °C

**Q.** For `Cc1cc(F)ccc1-n1cc(O)c(C(=O)O)n1`, which melting point is on record?
**A.** 149 to 151 °C

**Q.** Which melting point does the source give for `Cc1ccc(OCCCC(=O)O)c(C)c1` here?
**A.** 126 to 128 °C

**Q.** Which melting point does the source give for `CC(C)c1ccc(OCCC(=O)O)cc1` here?
**A.** 113 to 115 °C

**Q.** For `CC(C)(C)OC(=O)N1C2CCC1C(C(=O)O)C2` (stereo unspecified), which melting point is on record?
**A.** 144 to 146 °C

**Q.** With `COc1ccc(C(=O)c2cccc3ccccc23)cc1` as the compound, how does the melting point read?
**A.** 95 to 97 °C

**Q.** With `O=C(O)CCC=Cc1ccccc1` as the compound, how does the melting point read?
**A.** 86 to 88 °C
